Measured values: patent US20040102622A1, “Modulation of hepatocyte growth factor receptor expression” (Isis Pharmaceuticals Inc., priority 2002, published 2004)
Strand notation (5' to 3'): a small letter for the sugar, then the base; units joined by * are phosphorothioate-linked, units joined directly phosphodiester-linked; [ ] holds rarer units or linkages, { } end groups; capitals alone tell only the bases. e = 2'-O-(2-methoxyethyl) (MOE); [5mC] = 5-methylcytosine; d = 2'-deoxy (DNA)
Note: test concentration or dose not given here.

These substances were tested on human hepatocyte growth factor receptor mRNA (assay: Inhibition of human hepatocyte growth factor receptor mRNA levels in T-24 cells, quantitative real-time PCR). Conditions: averages from three experiments.
In the case of “155118 (antisense e[5mC]*eA*eT*e[5mC]*e[5mC]*dA*dG*d[5mC]*dA*dT*dA*d[5mC]*dA*dG*dT*eT*eT*e[5mC]*eT*eT) [compound 155118]”, the “% INHIB (inhibition of human hepatocyte growth factor receptor mRNA levels)” value (shortened to “% INHIB”) was 55%.
With “209554 (antisense eA*eG*eA*eG*eG*dG*dA*dA*dA*dT*d[5mC]*dG*dG*d[5mC]*d[5mC]*e[5mC]*e[5mC]*e[5mC]*eG*e[5mC]) [compound 209554]” the “% INHIB” value was 0%.
With “209555 (antisense eG*e[5mC]*eG*e[5mC]*eG*d[5mC]*dT*dG*d[5mC]*d[5mC]*d[5mC]*dT*dG*d[5mC]*d[5mC]*eA*eG*eT*eG*eA) [compound 209555]” the “% INHIB” value was 0%.
For “209540 (antisense e[5mC]*eA*e[5mC]*eA*eT*d[5mC]*d[5mC]*d[5mC]*dT*dT*dG*dT*dA*dA*dG*eT*eT*eG*eG*eA) [compound 209540]”, the “% INHIB” value was 52%.
For “155129 (antisense eG*eA*eT*eT*eG*dG*dG*dT*d[5mC]*d[5mC]*dG*dT*dA*dA*dA*eA*eA*eT*eG*e[5mC]) [compound 155129]”, the “% INHIB” value was 59%.
“209532 (antisense eA*eG*eT*eA*e[5mC]*dT*dA*dA*dT*dA*dA*dA*dA*dG*dA*eT*eT*eT*eG*eG) [compound 209532]” was tested, and the “% INHIB” value was 0%.
For “209548 (antisense eT*e[5mC]*eA*eA*eG*dA*dA*dG*d[5mC]*d[5mC]*d[5mC]*dT*d[5mC]*dA*dA*eT*eA*eT*eT*eT) [compound 209548]”, the “% INHIB” value was 67%.
“209521 (antisense eG*eG*eA*eA*e[5mC]*d[5mC]*dA*dG*dT*dG*dG*dA*dG*dA*dA*eG*eT*e[5mC]*eA*eG) [compound 209521]” was tested, and the “% INHIB” value was 58%.
For “155126 (antisense e[5mC]*eT*eG*eT*eG*d[5mC]*dA*dT*dT*dT*d[5mC]*dA*dA*dT*dG*eT*eA*eT*eT*e[5mC]) [compound 155126]”, the “% INHIB” value was 68%.
In the case of “209525 (antisense e[5mC]*eT*eG*eG*eT*d[5mC]*d[5mC]*dG*dT*d[5mC]*dA*dA*dA*dA*dA*e[5mC]*eA*eT*eA*eA) [compound 209525]”, the “% INHIB” value was 89%.
With “209541 (antisense eA*e[5mC]*e[5mC]*eA*eA*dG*dT*dA*d[5mC]*dT*dG*dT*dA*dA*dG*eA*eG*eA*eG*eG) [compound 209541]” the “% INHIB” value was 40%.
“209550 (antisense eT*eG*e[5mC]*eG*e[5mC]*dG*d[5mC]*dT*dG*dT*dA*dG*dT*d[5mC]*d[5mC]*e[5mC]*eA*eG*e[5mC]*eT) [compound 209550]” was tested, and the “% INHIB” value was 84%.
For “209524 (antisense e[5mC]*eT*e[5mC]*eA*eT*dG*dT*dA*dG*dA*dA*dT*dG*dA*d[5mC]*eA*eT*eT*e[5mC]*eT) [compound 209524]”, the “% INHIB” value was 95%.
In the case of “155109 (antisense eA*eG*e[5mC]*eT*e[5mC]*dG*d[5mC]*dT*dG*dT*dT*d[5mC]*dA*dA*dT*eT*eT*e[5mC]*eA*eG) [compound 155109]”, the “% INHIB” value was 80%.
In the case of “209539 (antisense eG*e[5mC]*eT*eT*e[5mC]*d[5mC]*d[5mC]*d[5mC]*dA*dT*dT*dG*d[5mC]*dT*dG*eT*eT*eA*eG*eG) [compound 209539]”, the “% INHIB” value was 57%.
“155120 (antisense eG*eT*eG*eT*e[5mC]*d[5mC]*dT*dA*dT*dT*dA*dA*dA*dG*d[5mC]*eA*eG*eT*eG*e[5mC]) [compound 155120]” was tested, and the “% INHIB” value was 90%.
In the case of “209536 (antisense e[5mC]*e[5mC]*eT*e[5mC]*e[5mC]*d[5mC]*dA*dT*dA*d[5mC]*dT*dA*dG*dA*dG*eA*eA*eG*eT*eA) [compound 209536]”, the “% INHIB” value was 36%.
In the case of “209547 (antisense eT*e[5mC]*e[5mC]*eT*eG*d[5mC]*dT*dT*d[5mC]*dA*dA*dT*dT*dT*d[5mC]*e[5mC]*e[5mC]*eA*eT*eA) [compound 209547]”, the “% INHIB” value was 84%.
With “209523 (antisense eG*eG*eG*e[5mC]*e[5mC]*dT*dT*d[5mC]*dA*dT*dT*dA*dT*dG*dA*eG*eA*eG*eG*eT) [compound 209523]” the “% INHIB” value was 84%.
With “209529 (antisense e[5mC]*e[5mC]*e[5mC]*eA*eG*d[5mC]*d[5mC]*dA*d[5mC]*dA*dT*dA*dT*dG*dG*eT*e[5mC]*eA*eG*e[5mC]) [compound 209529]” the “% INHIB” value was 87%.
For “155133 (antisense eA*eA*eA*e[5mC]*e[5mC]*dA*dT*dT*dT*d[5mC]*dT*dG*dT*dA*dG*eT*eT*eG*eG*eG) [compound 155133]”, the “% INHIB” value was 68%.
In the case of “155101 (antisense eT*eT*e[5mC]*eA*eG*d[5mC]*d[5mC]*dA*d[5mC]*dA*dG*dG*dA*dA*dA*eA*eA*e[5mC]*e[5mC]*e[5mC]) [compound 155101]”, the “% INHIB” value was 40%.
In the case of “209535 (antisense eA*eT*eA*eA*e[5mC]*dA*dA*dT*dA*d[5mC]*dA*dA*dG*dT*d[5mC]*e[5mC]*eT*eA*eT*eG) [compound 209535]”, the “% INHIB” value was 39%.
“155119 (antisense eA*eA*eG*eT*eA*dT*dA*dT*dT*dA*dA*dA*d[5mC]*dA*d[5mC]*eT*eT*e[5mC]*e[5mC]*eT) [compound 155119]” was tested, and the “% INHIB” value was 92%.
With “155112 (antisense eT*eA*eG*eG*eA*dG*dT*d[5mC]*dT*dT*d[5mC]*dT*d[5mC]*d[5mC]*d[5mC]*eT*eT*eG*e[5mC]*eA) [compound 155112]” the “% INHIB” value was 81%.
For “209534 (antisense eA*eG*e[5mC]*eA*eT*dT*dA*d[5mC]*dT*dT*d[5mC]*dA*dT*dA*dT*eA*eA*eG*eG*eG) [compound 209534]”, the “% INHIB” value was 35%.
With “155110 (antisense eT*e[5mC]*eG*eG*eG*dA*d[5mC]*dA*d[5mC]*dT*dA*dA*d[5mC]*dT*dG*eA*eA*eT*eT*e[5mC]) [compound 155110]” the “% INHIB” value was 79%.
“155105 (antisense eA*eT*e[5mC]*eA*eA*dA*dG*dT*dA*dT*dT*dT*dG*dG*dA*eA*eA*eG*eG*eA) [compound 155105]” was tested, and the “% INHIB” value was 64%.
With “155111 (antisense eG*eT*eT*e[5mC]*eG*dG*d[5mC]*dA*dG*dA*dA*dT*d[5mC]*dT*dG*eG*e[5mC]*eT*eT*eG) [compound 155111]” the “% INHIB” value was 86%.
With “209526 (antisense eT*eT*eG*eA*eT*dA*dG*dG*dG*dA*dA*dT*dG*d[5mC]*dA*e[5mC]*eA*e[5mC]*eA*eT) [compound 209526]” the “% INHIB” value was 93%.
